Values joined by “and” are separate entries in the source; they are usually repeats but may differ in a detail not shown here. Equal entries are not always repeated. Marks after values point to notes of the source that are not given here.
What was measured:
[1] = tested on: maize B55 haploid seedlings; test: nitrous oxide gas treatment at 3–8 leaf stages, B55 haploids (Example 3); settings: for Ear (open pollinated): No. of fertile sectors /ear / Ear (open pollinated): No. of kernels produced /ear / Ear (open pollinated): Plants with fertile sectors % / No. of tassel branch Average / Plant height (cm) Average / Tassel: No. of fertile anthers extruded/tassel / Tassel: No. of fertile sectors/tassel / Tassel: Plants with fertile sectors % / Ear (open pollinated): Plants with fertile sectors No. / Tassel: Plants with fertile sectors No. / No. of plants Survived: 600 kPa, 2 days
Description: Leaf stages were defined as follows, At the 3 leaf stage, there are three elongated leaves and the tip of the fourth leaf appears at the center of the leaf whorl. This stage is defined as V2 according to Ritchie et al. (1997). At the 8 leaf stage, there are 8 elongated leaves and the tip of the 9th and 10th leaves appear at the center of the leaf whorl (late V5 stage). At the 6 leaf stage, six elongated leaves are observable, and the tip of seventh leaf appears at the leaf whorl (late V4 or early V5 stage). Nine to sixteen haploid plants were treated at each stage using a large air tight iron chamber (FIG. 3). […] Moistened calcium hydroxide (50 g) wrapped in a paper towel was included to absorb carbon dioxide that is produced by the seedlings, as carbon dioxide at high concentration will injure the seedlings during the treatment. The soil of the pots was dried prior to treatment to prevent root injuries. […] The gas was introduced slowly into the chamber over a 10 minutes time frame.
After the treatment, seedlings were transplanted into larger pots, and grown in a greenhouse. A relatively cool temperature (below 25° C.) was maintained to permit the appropriate development of doubled sectors. At flowering, the ears were cross pollinated by an appropriate pollen source to reveal all the fertile sectors on the ears. On the treated plants, plant height (cm), tassel size (cm), number of tassel branches, ear length (cm), the number of fertile sectors on a tassel and an ear, the number of anthers on a tassel, and the number of kernels on an ear were recorded.
Analyses of variance and Duncan's Multiple Range Tests were performed to determine the effects of treatments on the plant height (cm), tassel size (cm), and ear length (cm). Chi square tests were used to determine the effects of treatments upon the proportion of plants that developed fertile tassel and ear sectors. The ratios of untreated plants with fertile sectors were used to estimate the significance of the ratio of treated plants with fertile sectors.
Nonparametric tests were performed to compare the distributions. The primary test was the Kruskal-Wallis test. In the initial tests, the null hypothesis considered was that the distributions would be the same for each treatment and control. If the null hypothesis was rejected (P<0.05), then pair wise comparisons of each treatment to the control using Dunn's method were conducted. The tassel branch number was low incidence count data and was analyzed using the same nonparametric tests mentioned above.

[2] = tested on: maize haploid seedlings of origin B55; test: doubled haploid production trial, B55 haploids (Example 4); settings: for Ear: Plants with kernels after selfing % / Tassel: No. of fertile anthers extruded/tassel / Tassel: No. of fertile sectors/tassel / Tassel: Plants with fertile sectors % / Ear: Plants with kernels after selfing No. / Tassel: Plants with fertile sectors No. / No. of plants Survived / Ear: No. of kernels produced/ear: B55 haploids, 600 kPa, 2 days; for Ear: No. of kernels produced/ear: selfed
Protocol: (§1) Ten to nineteen plants were treated for each plot. Self pollinations were conducted on these treated haploids if there were fertile sectors on the tassel. Pollen grains were collected carefully on a sheet of paper and transferred to the silks repeatedly. Silks and husks were cut back prior to pollination in order to permit maximum seed set. The numbers of fertile tassel and ear sectors, as well as the numbers of anthers and selfed kernels were recorded. Statistical analyses were as described above.

[3] = tested on: maize haploid seedlings of origin Oh43; test: doubled haploid production trial, Oh43 haploids (Example 4); settings: for Ear: Plants with kernels after selfing % / Tassel: No. of fertile anthers extruded/tassel / Tassel: Plants with fertile sectors % / Ear: Plants with kernels after selfing No. / Tassel: Plants with fertile sectors No. / No. of plants Survived / Ear: No. of kernels produced/ear: 600 kPa, 2 days; for Ear: No. of kernels produced/ear: selfed
Protocol: as §1

[4] = Oh43 haploids, 5 leaf stage, 14 survived
[5] = Oh43 haploids, 6 leaf stage, 12 survived
[6] = Oh43 haploids, 7 leaf stage, 10 survived

[N-]=[N+]=O [nitrous oxide gas, nitrous oxide]
Ear (open pollinated): No. of fertile sectors /ear ([1]; 3 leaf stage): 1.1 /ear
Ear (open pollinated): No. of kernels produced /ear ([1]; 3 leaf stage): 49.0* /ear
Ear (open pollinated): Plants with fertile sectors % ([1]; 3 leaf stage): 67%
No. of tassel branch Average ([1]; 3 leaf stage): 18.8*
Plant height (cm) Average ([1]; 3 leaf stage): 183 cm·days
Tassel: No. of fertile anthers extruded/tassel ([1]; 3 leaf stage): 35.6 /tassel
Tassel: No. of fertile sectors/tassel ([1]; 3 leaf stage): 1.1 /tassel
Tassel: Plants with fertile sectors % ([1]; 3 leaf stage): 67%
Ear (open pollinated): Plants with fertile sectors No. ([1]; 3 leaf stage, 9 examined): 6
Tassel: Plants with fertile sectors No. ([1]; 3 leaf stage, 9 examined): 6
No. of plants Survived ([1]; 3 leaf stage, 10 treated): 9
number of anthers /tassel, span over treatments ([1]; 3–8 leaf stage treatments): 35.6–521 /tassel
number of kernels on the ears, span over treatments ([1]; 3–8 leaf stage treatments): 10.9–49.0
Ear (open pollinated): No. of fertile sectors /ear ([1]; 4 leaf stage): 2.8** /ear
Ear (open pollinated): No. of kernels produced /ear ([1]; 4 leaf stage): 21.5** /ear
Ear (open pollinated): Plants with fertile sectors % ([1]; 4 leaf stage): 100** %
No. of tassel branch Average ([1]; 4 leaf stage): 20.1
Plant height (cm) Average ([1]; 4 leaf stage): 168 bc cm
Tassel: No. of fertile anthers extruded/tassel ([1]; 4 leaf stage): 111.5* /tassel
Tassel: No. of fertile sectors/tassel ([1]; 4 leaf stage): 1.5 /tassel
Tassel: Plants with fertile sectors % ([1]; 4 leaf stage): 64%
Ear (open pollinated): Plants with fertile sectors No. ([1]; 4 leaf stage, 11 examined): 11
Tassel: Plants with fertile sectors No. ([1]; 4 leaf stage, 11 examined): 7
No. of plants Survived ([1]; 4 leaf stage, 11 treated): 11
Ear (open pollinated): No. of fertile sectors /ear ([1]; 5 leaf stage): 1.6 /ear
Ear (open pollinated): No. of kernels produced /ear ([1]; 5 leaf stage): 40.4** /ear
Ear (open pollinated): Plants with fertile sectors % ([1]; 5 leaf stage): 89* %
No. of tassel branch Average ([1]; 5 leaf stage): 13.9**
Plant height (cm) Average ([1]; 5 leaf stage): 170 c cm
Tassel: No. of fertile anthers extruded/tassel ([1]; 5 leaf stage): 139.6** /tassel
Tassel: No. of fertile sectors/tassel ([1]; 5 leaf stage): 3.0* /tassel
Tassel: Plants with fertile sectors % ([1]; 5 leaf stage): 100** %
Ear (open pollinated): Plants with fertile sectors No. ([1]; 5 leaf stage, 9 examined): 8
Tassel: Plants with fertile sectors No. ([1]; 5 leaf stage, 9 examined): 9
No. of plants Survived ([1]; 5 leaf stage, 9 treated): 9
frequency of fertile sectors on the tassels ([1]; 5–7 leaf stages): 100%
number of anthers on the tassels ([1]; 5–7 leaf stages): 140–521 /tassel
number of kernels on the ears ([1]; 5–7 leaf stages): 40.4–47.5 /ear
Ear (open pollinated): No. of fertile sectors /ear ([1]; 6 leaf stage): 1.7 /ear
Ear (open pollinated): No. of kernels produced /ear ([1]; 6 leaf stage): 45.5** /ear
Ear (open pollinated): Plants with fertile sectors % ([1]; 6 leaf stage): 90* %
No. of tassel branch Average ([1]; 6 leaf stage): 14.5**
Plant height (cm) Average ([1]; 6 leaf stage): 165 bc cm
Tassel: No. of fertile anthers extruded/tassel ([1]; 6 leaf stage): 521 /tassel and 521.1** /tassel
Tassel: No. of fertile sectors/tassel ([1]; 6 leaf stage): 5.7** /tassel
Tassel: Plants with fertile sectors % ([1]; 6 leaf stage): 100** %
Ear (open pollinated): Plants with fertile sectors No. ([1]; 6 leaf stage, 10 examined): 9
Tassel: Plants with fertile sectors No. ([1]; 6 leaf stage, 10 examined): 10
No. of plants Survived ([1]; 6 leaf stage, 10 treated): 10
Ear (open pollinated): No. of fertile sectors /ear ([1]; 7 leaf stage): 1.8 /ear
Ear (open pollinated): No. of kernels produced /ear ([1]; 7 leaf stage): 47.5** /ear
Ear (open pollinated): Plants with fertile sectors % ([1]; 7 leaf stage): 82%
No. of tassel branch Average ([1]; 7 leaf stage): 14.3**
Plant height (cm) Average ([1]; 7 leaf stage): 168 bc cm
Tassel: No. of fertile anthers extruded/tassel ([1]; 7 leaf stage): 267.3** /tassel
Tassel: No. of fertile sectors/tassel ([1]; 7 leaf stage): 9.6** /tassel
Tassel: Plants with fertile sectors % ([1]; 7 leaf stage): 100** %
Ear (open pollinated): Plants with fertile sectors No. ([1]; 7 leaf stage, 11 examined): 9
Tassel: Plants with fertile sectors No. ([1]; 7 leaf stage, 11 examined): 11
No. of plants Survived ([1]; 7 leaf stage, 11 treated): 11
Ear (open pollinated): No. of fertile sectors /ear ([1]; 8 leaf stage): 2.3** /ear
Ear (open pollinated): No. of kernels produced /ear ([1]; 8 leaf stage): 10.9* /ear
Ear (open pollinated): Plants with fertile sectors % ([1]; 8 leaf stage): 92** %
No. of tassel branch Average ([1]; 8 leaf stage): 20.4*
Plant height (cm) Average ([1]; 8 leaf stage): 137 a cm
Tassel: No. of fertile anthers extruded/tassel ([1]; 8 leaf stage): 283.2** /tassel
Tassel: No. of fertile sectors/tassel ([1]; 8 leaf stage): >18.6** /tassel
Tassel: Plants with fertile sectors % ([1]; 8 leaf stage): 100** %
Ear (open pollinated): Plants with fertile sectors No. ([1]; 8 leaf stage, 12 examined): 11
Tassel: Plants with fertile sectors No. ([1]; 8 leaf stage, 12 examined): 12
No. of plants Survived ([1]; 8 leaf stage, 12 treated): 12
successful self pollination rate ([2]; B55 haploids after nitrous oxide treatment): 90–100%
Ear: Plants with kernels after selfing % ([2]; 5 leaf stage): 60** %
Tassel: No. of fertile anthers extruded/tassel ([2]; 5 leaf stage): 161.3** /tassel
Tassel: No. of fertile sectors/tassel ([2]; 5 leaf stage): 1.6 /tassel
Tassel: Plants with fertile sectors % ([2]; 5 leaf stage): 90** %
Ear: Plants with kernels after selfing No. ([2]; 5 leaf stage, 10 survived): 6
Tassel: Plants with fertile sectors No. ([2]; 5 leaf stage, 10 survived): 9
No. of plants Survived ([2]; 5 leaf stage, 10 treated): 10
Ear: No. of kernels produced/ear ([2]; 5 leaf stage): 31.5* /ear
Ear: Plants with kernels after selfing % ([2]; 6 leaf stage): 90%
Tassel: No. of fertile anthers extruded/tassel ([2]; 6 leaf stage): 380 /tassel and 380.1** /tassel
Tassel: No. of fertile sectors/tassel ([2]; 6 leaf stage): 4.5** /tassel
Tassel: Plants with fertile sectors % ([2]; 6 leaf stage): 100** %
Ear: Plants with kernels after selfing No. ([2]; 6 leaf stage, 10 survived): 9
Tassel: Plants with fertile sectors No. ([2]; 6 leaf stage, 10 survived): 10
No. of plants Survived ([2]; 6 leaf stage, 10 treated): 10
Ear: No. of kernels produced/ear ([2]; 6 leaf stage): 61.6 /ear
Ear: Plants with kernels after selfing % ([2]; 7 leaf stage): 78** %
Tassel: No. of fertile anthers extruded/tassel ([2]; 7 leaf stage): 401.3** /tassel
Tassel: No. of fertile sectors/tassel ([2]; 7 leaf stage): 10.6** /tassel
Tassel: Plants with fertile sectors % ([2]; 7 leaf stage): 100** %
Ear: Plants with kernels after selfing No. ([2]; 7 leaf stage, 9 survived): 7
Tassel: Plants with fertile sectors No. ([2]; 7 leaf stage, 9 survived): 9
No. of plants Survived ([2]; 7 leaf stage, 9 treated): 9
Ear: No. of kernels produced/ear ([2]; 7 leaf stage): 65.6** /ear
self pollination success rates after treatment ([3]; Oh43 haploids): 20–30%
Ear: Plants with kernels after selfing % ([3]; Oh43 haploids, 5 leaf stage): 29 n.s %
Tassel: No. of fertile anthers extruded/tassel ([3]; Oh43 haploids, 5 leaf stage): 11.2* /tassel
Tassel: Plants with fertile sectors % ([3]; Oh43 haploids, 5 leaf stage): 57%
Ear: Plants with kernels after selfing No. [3, 4]: 4
Tassel: Plants with fertile sectors No. [3, 4]: 8
No. of plants Survived ([3]; Oh43 haploids, 5 leaf stage, 19 treated): 14
Ear: No. of kernels produced/ear ([3]; Oh43 haploids, 5 leaf stage): 0.6 n.s. /ear
Ear: Plants with kernels after selfing % ([3]; Oh43 haploids, 6 leaf stage): 17%
Tassel: No. of fertile anthers extruded/tassel ([3]; Oh43 haploids, 6 leaf stage): 5.7** /tassel
Tassel: Plants with fertile sectors % ([3]; Oh43 haploids, 6 leaf stage): 92** %
Ear: Plants with kernels after selfing No. [3, 5]: 2
Tassel: Plants with fertile sectors No. [3, 5]: 11
No. of plants Survived ([3]; Oh43 haploids, 6 leaf stage, 16 treated): 12
Ear: No. of kernels produced/ear ([3]; Oh43 haploids, 6 leaf stage): 1.0 /ear
Ear: Plants with kernels after selfing % ([3]; Oh43 haploids, 7 leaf stage): 10%
Tassel: No. of fertile anthers extruded/tassel ([3]; Oh43 haploids, 7 leaf stage): 2.6 /tassel
Tassel: Plants with fertile sectors % ([3]; Oh43 haploids, 7 leaf stage): 70* %
Ear: Plants with kernels after selfing No. [3, 6]: 1
Tassel: Plants with fertile sectors No. [3, 6]: 7
No. of plants Survived ([3]; Oh43 haploids, 7 leaf stage, 15 treated): 10
Ear: No. of kernels produced/ear ([3]; Oh43 haploids, 7 leaf stage): 0.1 /ear
Tassel: No. of fertile sectors/tassel ([3]; in vivo): 0.8 /tassel and 1.3** /tassel and 1.0 /tassel
